Results from PubChem BioAssay (NCI).
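GI50 is the concentration that inhibits growth by half. TGI: total growth inhibition.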

How the values were obtained:
Experiment in all cases: DTP human tumour cell line panel, 384-well format
[1] = test system: 786-0 renal
[2] = test system: A498 renal
[3] = test system: A549 NSCLC
[4] = test system: ACHN renal
[5] = test system: BT-549 breast
[6] = test system: CAKI-1 renal
[7] = test system: CCRF-CEM leukemia
[8] = test system: COLO 205 colon
[9] = test system: DU-145 prostate
[10] = test system: EKVX NSCLC
[11] = test system: HCC-2998 colon
[12] = test system: HCT-116 colon
[13] = test system: HCT-15 colon
[14] = test system: HL-60(TB) leukemia
[15] = test system: HOP-62 NSCLC
[16] = test system: HOP-92 NSCLC
[17] = test system: HS 578T breast
[18] = test system: HT29 colon
[19] = test system: IGROV1 ovarian
[20] = test system: K-562 leukemia
[21] = test system: KM12 colon
[22] = test system: LOX IMVI melanoma
[23] = test system: M14 melanoma
[24] = test system: MALME-3M melanoma
[25] = test system: MCF7 breast
[26] = test system: MDA-MB-231 breast
[27] = test system: MDA-MB-435 melanoma
[28] = test system: MDA-MB-468 breast
[29] = test system: MOLT-4 leukemia
[30] = test system: NCI-H226 lung
[31] = test system: NCI-H23 lung
[32] = test system: NCI-H322M lung
[33] = test system: NCI-H460 NSCLC
[34] = test system: NCI-H522 lung
[35] = test system: NCI/ADR-RES ovarian
[36] = test system: OVCAR-3 ovarian
[37] = test system: OVCAR-4 ovarian
[38] = test system: OVCAR-5 ovarian
[39] = test system: OVCAR-8 ovarian
[40] = test system: PC-3 prostate
[41] = test system: RPMI-8226 leukemia
[42] = test system: RXF 393 renal
[43] = test system: SF-268 CNS
[44] = test system: SF-295 CNS
[45] = test system: SF-539 CNS
[46] = test system: SK-MEL-28 melanoma
[47] = test system: SK-MEL-5 melanoma
[48] = test system: SK-OV-3 ovarian
[49] = test system: SN12C renal
[50] = test system: SNB-19 CNS
[51] = test system: SNB-75 CNS
[52] = test system: SW-620 colon
[53] = test system: T-47D breast
[54] = test system: TK-10 renal
[55] = test system: U251 glioblastoma
[56] = test system: UACC-257 melanoma
[57] = test system: UACC-62 melanoma
[58] = test system: UO-31 renal
[59] = test system: SR leukemia

C[C@@H](NC(=O)c1ncnc(N)c1Cl)c1ncc(C(=O)Nc2cc(C(F)(F)F)c(Cl)cn2)s1
GI50 [1]: 16.8 µM | TGI [1]: 32.9 µM | GI50 [2]: 16.1 µM | TGI [2]: 39.7 µM | GI50 [3]: 10.3 µM | TGI [3]: 27.8 µM | GI50 [4]: 13.7 µM | TGI [4]: 37.8 µM | GI50 [5]: 16.2 µM | TGI [5]: 30.8 µM | GI50 [6]: 11.6 µM | TGI [6]: 26.5 µM | GI50 [7]: 12.8 µM | TGI [7]: 25.5 µM | GI50 [8]: 0.441 µM | TGI [8]: 12.2 µM | GI50 [9]: 18 µM | TGI [9]: 35.2 µM | GI50 [10]: 14.8 µM | TGI [10]: 29.1 µM | GI50 [11]: 4.74 µM | TGI [11]: 18.5 µM | GI50 [12]: 2.24 µM | TGI [12]: 13.6 µM | GI50 [13]: 11.2 µM | TGI [13]: 25.6 µM | GI50 [14]: 0.717 µM | TGI [14]: 10.8 µM | GI50 [15]: 12 µM | TGI [15]: 24.8 µM | GI50 [16]: 4.23 µM | TGI [16]: 14.9 µM | GI50 [17]: 15 µM | TGI [17]: 28.4 µM | GI50 [18]: 0.555 µM | TGI [18]: 15.4 µM | GI50 [19]: 5.42 µM | TGI [19]: 20.8 µM | GI50 [20]: 0.281 µM | TGI [20]: 1.2 µM | GI50 [21]: 13.1 µM | TGI [21]: 31.3 µM | GI50 [22]: 1.42 µM | TGI [22]: 13.7 µM | GI50 [23]: 0.157 µM | TGI [23]: 1.16 µM | GI50 [24]: 0.0475 µM | TGI [24]: 0.289 µM | GI50 [25]: 14.5 µM | TGI [25]: 28.7 µM | GI50 [26]: 2.11 µM | TGI [26]: 20.3 µM | GI50 [27]: 1.37 µM | TGI [27]: 15.9 µM | GI50 [28]: 22 µM | TGI [28]: 39 µM | GI50 [29]: 11.1 µM | TGI [29]: 23.2 µM | GI50 [30]: 15.8 µM | TGI [30]: 40.4 µM | GI50 [31]: 1.88 µM | TGI [31]: 8.75 µM | GI50 [32]: 13 µM | TGI [32]: 28.1 µM | GI50 [33]: 9.03 µM | TGI [33]: 21.7 µM | GI50 [34]: 13.7 µM | TGI [34]: 26.6 µM | GI50 [35]: 16.9 µM | TGI [35]: 32 µM | GI50 [36]: 16.2 µM | TGI [36]: 34.1 µM | GI50 [37]: 20.6 µM | TGI [37]: 38 µM | GI50 [38]: 5.67 µM | TGI [38]: 29.6 µM | GI50 [39]: 14.4 µM | TGI [39]: 27.7 µM | GI50 [40]: 20.4 µM | TGI [40]: 35 µM | GI50 [41]: 13.9 µM | TGI [41]: 27.1 µM | GI50 [42]: 18.7 µM | TGI [42]: 40 µM | GI50 [43]: 12.3 µM | TGI [43]: 24.9 µM | GI50 [44]: 17.7 µM | TGI [44]: 32.8 µM | GI50 [45]: 17.4 µM | TGI [45]: 35.9 µM | GI50 [46]: 0.419 µM | TGI [46]: 2.67 µM | GI50 [47]: 1.35 µM | TGI [47]: 15.2 µM | GI50 [48]: 20.5 µM | TGI [48]: 42.6 µM | GI50 [49]: 15.3 µM | TGI [49]: 40.6 µM | GI50 [50]: 29.4 µM | TGI [50]: 91.4 µM | GI50 [51]: 23.7 µM | TGI [51]: 48.1 µM | GI50 [52]: 10.8 µM | TGI [52]: 26.6 µM | GI50 [53]: 10.2 µM | TGI [53]: 22.7 µM | GI50 [54]: 18.8 µM | TGI [54]: 36.4 µM | GI50 [55]: 18 µM | TGI [55]: 39.1 µM | GI50 [56]: 0.406 µM | TGI [56]: 2.48 µM | GI50 [57]: 0.154 µM | TGI [57]: 1.41 µM | GI50 [58]: 11.5 µM | TGI [58]: 32.5 µM

Nc1cc(C(F)(F)F)c(-c2cc(N3CCOCC3)nc(N3CCOCC3)n2)cn1
GI50 [1]: 1.97 µM | TGI [1]: 7 µM | GI50 [2]: 0.387 µM | TGI [2]: 1.87 µM | GI50 [3]: 0.36 µM | TGI [3]: 12.4 µM | GI50 [4]: 0.246 µM | TGI [4]: 10 µM | GI50 [5]: 0.691 µM | TGI [5]: 4.61 µM | GI50 [6]: 0.23 µM | TGI [6]: 0.804 µM | GI50 [7]: 0.589 µM | TGI [7]: 1.88 µM | GI50 [9]: 1.99 µM | TGI [9]: 13.9 µM | GI50 [10]: 0.793 µM | TGI [10]: 6.28 µM | GI50 [11]: 1.08 µM | TGI [11]: 3.37 µM | GI50 [12]: 0.852 µM | TGI [12]: 7.53 µM | GI50 [13]: 0.394 µM | TGI [13]: 4.11 µM | GI50 [14]: 0.28 µM | TGI [14]: 1.3 µM | GI50 [15]: 0.264 µM | TGI [15]: 2.73 µM | GI50 [16]: 0.562 µM | TGI [16]: 4 µM | GI50 [17]: 0.443 µM | TGI [17]: 1.75 µM | GI50 [18]: 0.715 µM | TGI [18]: > 100 µM | GI50 [19]: 0.209 µM | TGI [19]: 0.572 µM | GI50 [20]: 0.459 µM | TGI [20]: 1.83 µM | GI50 [21]: 0.894 µM | TGI [21]: 20.2 µM | GI50 [22]: 1.18 µM | TGI [22]: 10.7 µM | GI50 [23]: 0.416 µM | TGI [23]: 8.85 µM | GI50 [24]: 0.272 µM | TGI [24]: 0.838 µM | GI50 [26]: 0.819 µM | TGI [26]: 44.9 µM | GI50 [27]: 0.223 µM | TGI [27]: 0.449 µM | GI50 [28]: 0.23 µM | TGI [28]: 0.618 µM | GI50 [29]: 0.333 µM | TGI [29]: 1.33 µM | GI50 [30]: 0.574 µM | TGI [30]: 4.13 µM | GI50 [31]: 0.31 µM | TGI [31]: 2.26 µM | GI50 [32]: 1.62 µM | TGI [32]: 7.01 µM | GI50 [33]: 0.419 µM | TGI [33]: 1.67 µM | GI50 [34]: 0.341 µM | TGI [34]: 1.3 µM | GI50 [35]: 0.265 µM | TGI [35]: 1.67 µM | GI50 [36]: 0.546 µM | TGI [36]: 2.46 µM | GI50 [37]: 1.26 µM | TGI [37]: 6.66 µM | GI50 [38]: 0.687 µM | TGI [38]: > 100 µM | GI50 [39]: 0.46 µM | TGI [39]: 14 µM | GI50 [40]: 0.462 µM | TGI [40]: 6.93 µM | GI50 [41]: 0.185 µM | TGI [41]: 0.385 µM | GI50 [42]: 0.285 µM | TGI [42]: 1.3 µM | GI50 [43]: 0.384 µM | TGI [43]: 4.57 µM | GI50 [44]: 0.361 µM | TGI [44]: 1.54 µM | GI50 [45]: 1.21 µM | TGI [45]: 2.91 µM | GI50 [46]: 0.485 µM | TGI [46]: 3.34 µM | GI50 [47]: 0.235 µM | TGI [47]: 0.762 µM | GI50 [48]: 0.56 µM | TGI [48]: 2.55 µM | GI50 [49]: 1.22 µM | TGI [49]: 7.12 µM | GI50 [50]: 2.03 µM | TGI [50]: 7.76 µM | GI50 [51]: 0.287 µM | TGI [51]: 1.19 µM | GI50 [59]: 0.0459 µM | TGI [59]: 0.16 µM | GI50 [52]: 0.358 µM | TGI [52]: > 100 µM | GI50 [53]: 0.231 µM | TGI [53]: 0.776 µM | GI50 [54]: 0.572 µM | TGI [54]: 2.73 µM | GI50 [55]: 1.77 µM | TGI [55]: 4.37 µM | GI50 [56]: 0.93 µM | TGI [56]: 7.27 µM | GI50 [58]: 0.34 µM | TGI [58]: 3.07 µM
